Laboratory results published in patent US7829560B2, “1,4-disubstituted naphthalenes as inhibitors of P38 MAP kinase” (Arqule, Inc., priority 2004, dated 2010).

Key:
[1] = tested on: TNFα release from THP-1 cells; test: Inhibition of TNFα release from LPS-stimulated THP-1 cells, ELISA; type: cell-based; settings: Homo sapiens, THP-1, THP-1 cells, read-out: [CELL] THP-1, IC50, TNF ALPHA, ELISA
How it was run: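 Human THP-1 monocytes, 10^6 cells/ml in RPMI with 10% FBS, no serum or 1% HSA, preincubated 30 min at 37 °C with compound (≤0.5% DMSO), then stimulated with 10 μg/ml LPS for 18 h. Supernatant TNFα measured by ELISA; IC50 from non-linear dose-response regression.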

[2] = target: T1, p38α (Homo sapiens, UniProt Q16539); test: p38 MAP Kinase assay: inhibition of ATF2 phosphorylation, ELISA; type: biochemical; settings: for IC50: ATF2 phosphorylation, read-out: [ENZ] P38 ALPHA, IC50, ELISA; for inhibition at 10 µM: substrate ATF2, read-out: [ENZ] P38 ALPHA, PCT INH, ELISA (10 uM;ATF2) (Percent)
T1 construct: p38 MAP Kinases are recombinant human full-length proteins with an amino-terminal GST fusion; GST (N); purchased Upstate Biotechnology Inc; host or cells: E. coli
T1 sequence (Q16539 whole entry, the tested form may be a part): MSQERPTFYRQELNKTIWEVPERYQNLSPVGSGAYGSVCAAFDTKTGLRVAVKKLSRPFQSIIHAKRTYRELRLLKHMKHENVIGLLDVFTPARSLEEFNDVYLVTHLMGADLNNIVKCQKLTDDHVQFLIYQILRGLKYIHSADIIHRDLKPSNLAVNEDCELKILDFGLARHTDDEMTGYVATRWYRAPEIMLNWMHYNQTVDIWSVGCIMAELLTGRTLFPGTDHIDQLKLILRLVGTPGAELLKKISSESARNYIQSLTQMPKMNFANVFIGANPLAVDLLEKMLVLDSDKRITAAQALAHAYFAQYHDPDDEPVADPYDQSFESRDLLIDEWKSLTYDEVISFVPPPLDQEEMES
How it was run: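 GST-tagged full-length human p38 MAP kinase with GST-ATF2 (aa 19–96; 1.25 μM) and 40 μM ATP in HEPES pH 7.5 buffer, without (Method I) or with (Method II) 1% human serum albumin. Compound pre-incubated 15 min at room temperature; reaction 30 min at 37 °C; ATF2 Thr69 phosphorylation measured by ELISA (A450).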

Row | IC50 [1] [nM] | IC50 [2] [nM] | melting point [°C] | inhibition at 10 µM [2] [%] | Structure (SMILES)
1 | 59.3 | 1 | 95 to 97 |  | COCCNc1nccc(Oc2ccc(NC(=O)c3cc(F)cc(N4CCOCC4)c3)c3ccccc23)n1 [Compound B319, 3-Fluoro-N-[4-({2-[(2-methoxyethyl)amino]pyrimidin-4-yl}oxy)-1-naphthyl]-5-morpholin-4-ylbenzamide]
2 | 37.1 | 26.4 | 118 to 120 |  | O=C(Nc1ccc(Oc2ccnc(NC3CCCCC3)n2)c2ccccc12)c1cc(F)cc(N2CCCCC2)c1 [Compound B371, N-(4-{[2-(cyclohexylamino)pyrimidin-4-yl]oxy}-1-naphthyl)-3-fluoro-5-piperidin-1-ylbenzamide]
3 | 76.1 | 3.1 | 118 to 120 |  | O=C(Nc1ccc(Oc2ccnc(NC3CC3)n2)c2ccccc12)c1cc(F)cc(N2CCOCC2)c1 [Compound B321, N-(4-{[2-(Cyclopropylamino)pyrimidin-4-yl]oxy}-1-naphthyl)-3-fluoro-5-morpholin-4-ylbenzamide]
4 | 29.2 | 56.9 | 216 to 217 |  | COc1nccc(Oc2ccc(NC(=O)c3cc(F)cc(N4CCOCC4)c3)c3ccccc23)n1 [Compound B267, 3-Fluoro-N-{4-[(2-methoxypyrimidin-4-yl)oxy]-1-naphthyl}-5-morpholin-4-ylbenzamide]
5 | 76.8 | 3.1 | 112 to 114 |  | O=C(Nc1ccc(Oc2ccnc(NCCN3CCOCC3)n2)c2ccccc12)c1cc(F)cc(N2CCOCC2)c1 [Compound B326, 3-Fluoro-5-morpholin-4-yl-N-[4-({2-[(2-morpholin-4-ylethyl)amino]pyrimidin-4-yl}oxy)-1-naphthyl]benzamide]
6 | > 1000 | 166 | 102 to 104 |  | CC1CC(C)CN(c2nccc(Oc3ccc(NC(=O)c4cc(F)cc(N5CCOCC5)c4)c4ccccc34)n2)C1 (centres unmarked) [Compound B348, N-(4-{[2-(3,5-Dimethylpiperidin-1-yl)pyrimidin-4-yl]oxy}-1-naphthyl)-3-fluoro-5-morpholin-4-ylbenzamide]
7 | 157 | 46.6 | 104 to 106 |  | O=C(Nc1ccc(Oc2ccnc(N3CCOCC3)n2)c2ccccc12)c1cc(F)cc(N2CCOCC2)c1 [Compound B248, 3-Fluoro-5-morpholin-4-yl-N-{4-[(2-morpholin-4-ylpyrimidin-4-yl)oxy]-1-naphthyl}benzamide]
8 | > 10000 | 997 | 210 to 211 | 84 | CC(=O)N1CCN(CCCOc2ccc(NC(=O)c3cc(F)cc(N4CCCCC4)c3)c3ccccc23)CC1 [Compound B165, N-{4-[3-(4-Acetyl-piperazin-1-yl)-propoxy]-naphthalen-1-yl}-3-fluoro-5-piperidin-1-yl-benzamide]
9 | 6.1 | 1.1 | 100 to 101 |  | CN1CCCC1CCNc1nccc(Oc2ccc(NC(=O)c3cc(F)cc(N4CCOCC4)c3)c3ccccc23)n1 (centres unmarked) [Compound B344, 3-Fluoro-N-{4-[(2-{[2-(1-methylpyrrolidin-2-yl)ethyl]amino}pyrimidin-4-yl)oxy]-1-naphthyl}-5-morpholin-4-ylbenzamide]
10 | 309 | 5.7 | 182 to 184 |  | O=C(Nc1ccc(Oc2ccnc(N3CCC(O)CC3)n2)c2ccccc12)c1cc(F)cc(N2CCCCC2)c1 [Compound B387, 3-Fluoro-N-(4-{[2-(4-hydroxypiperidin-1-yl)pyrimidin-4-yl]oxy}-1-naphthyl)-5-piperidin-1-ylbenzamide]
11 | 2050 | 1060 | 158 to 160 |  | COc1ccc(CCOc2ccc(NC(=O)c3cc(F)cc(N4CCCCC4)c3)c3ccccc23)cc1OC [Compound B179, N-{4-[2-(3,4-Dimethoxyphenyl)ethoxy]-1-naphthyl}-3-fluoro-5-piperidin-1-ylbenzamide]
12 | > 1000 | 90.9 | 211 to 212 |  | CC(C)(C)OC(=O)NC1CCN(c2nccc(Oc3ccc(NC(=O)c4cc(F)cc(N5CCCCC5)c4)c4ccccc34)n2)CC1 [Compound B410, tert-Butyl{1-[4-({4-[(3-fluoro-5-piperidin-1-ylbenzoyl)amino]-1-naphthyl}oxy)pyrimidin-2-yl]piperidin-4-yl}carbamate]
13 | 149 | 4.4 | 195 to 197 |  | CN1CCN(c2nccc(Oc3ccc(NC(=O)c4cc(F)cc(N5CCOCC5)c4)c4ccccc34)n2)CC1 [Compound B328, 3-Fluoro-N-(4-{[2-(4-methylpiperazin-1-yl)pyrimidin-4-yl]oxy}-1-naphthyl)-5-morpholin-4-ylbenzamide]
14 | 190 | 7.1 | 115 to 117 |  | O=C(Nc1ccc(Oc2ccnc(N3CCC4(CC3)OCCO4)n2)c2ccccc12)c1cc(F)cc(N2CCOCC2)c1 [Compound B320, N-(4-{[2-(1,4-Dioxa-8-azaspiro[4.5]dec-8-yl)pyrimidin-4-yl]oxy}-1-naphthyl)-3-fluoro-5-morpholin-4-ylbenzamide]
15 | 1370 | 519 | 173 to 175 |  | CS(=O)(=O)c1nccc(Oc2ccc(NC(=O)c3cc(F)cc(N4CCOCC4)c3)c3ccccc23)n1 [Compound B268, 3-Fluoro-N-(4-{[2-(methylsulfonyl)pyrimidin-4-yl]oxy}-1-naphthyl)-5-morpholin-4-ylbenzamide]
16 | 185 | 6.9 | 157 to 158 |  | O=C(Nc1ccc(Oc2ccnc(NC3CC3)n2)c2ccccc12)c1cc(F)cc(N2CCCCC2)c1 [Compound B382, N-(4-{[2-(Cyclopropylamino)pyrimidin-4-yl]oxy}-1-naphthyl)-3-fluoro-5-piperidin-1-ylbenzamide]
17 | 239 | 225 | 115 to 116 |  | CSc1nccc(Oc2ccc(NC(=O)c3cc(F)cc(OC4CCCC4)c3)c3ccccc23)n1 [Compound B304, 3-(Cyclopentyloxy)-5-fluoro-N-(4-{[2-(methylthio)pyrimidin-4-yl]oxy}-1-naphthyl)benzamide]
18 | > 10000 | 413 | 116 to 118 |  | O=C(Nc1ccc(OCCN2CCOCC2)c2ccccc12)c1cc(F)cc(OC2CCCCC2)c1 [Compound B195, 3-(Cyclohexyloxy)-5-fluoro-N-[4-(2-morpholin-4-ylethoxy)-1-naphthyl]benzamide]
19 | 147 | 4.3 | 87 to 88 |  | COCCNc1nccc(Oc2ccc(NC(=O)c3cc(F)cc(N4CCCCC4)c3)c3ccccc23)n1 [Compound B374, 3-Fluoro-N-[4-({2-[(2-methoxyethyl)amino]pyrimidin-4-yl}oxy)-1-naphthyl]-5-piperidin-1-ylbenzamide]
20 | 6620 | 5090 | 213 to 214 |  | N#Cc1ccc(C(=O)Nc2ccc(OCCN3CCOCC3)c3ccccc23)cc1 [Compound B36, 4-Cyano-N-[4-(2-morpholin-4-ylethoxy)-1-naphthyl]benzamide]
21 | 9080 | 620 | 142 to 144 | 85 | O=C(Nc1ccc(OCCN2CCOCC2)c2ccccc12)c1cc(F)cc(N2CCCCCC2)c1 [Compound B67, 3-Azepan-1-yl-5-fluoro-N-[4-(2-morpholin-4-ylethoxy)-1-naphthyl]benzamide]
22 | 9330 | 291 | 145 to 148 |  | CC1CCCN(c2cc(F)cc(C(=O)Nc3ccc(OCCN4CCOCC4)c4ccccc34)c2)C1 (centres unmarked) [Compound B202, 3-Fluoro-5-(3-methylpiperidin-1-yl)-N-[4-(2-morpholin-4-ylethoxy)-1-naphthyl]benzamide]
23 | 202 | 30.4 | 93 to 94 |  | CN(C)[C@@H]1CCN(c2nccc(Oc3ccc(NC(=O)c4cc(F)cc(N5CCCCC5)c4)c4ccccc34)n2)C1 [Compound B405, N-[4-({2-[(3R)-3-(Dimethylamino)pyrrolidin-1-yl]pyrimidin-4-yl}oxy)-1-naphthyl]-3-fluoro-5-piperidin-1-ylbenzamide]
24 | 330 | 21.1 | 96 to 98 |  | COCCN(C)c1nccc(Oc2ccc(NC(=O)c3cc(F)cc(N4CCOCC4)c3)c3ccccc23)n1 [Compound B370, 3-Fluoro-N-[4-({2-[(2-methoxyethyl)(methyl)amino]pyrimidin-4-yl}oxy)-1-naphthyl]-5-morpholin-4-ylbenzamide]
25 | 63.2 | 1.6 | 102 to 104 |  | CS(=O)(=O)CCNc1nccc(Oc2ccc(NC(=O)c3cc(F)cc(N4CCCCC4)c3)c3ccccc23)n1 [Compound B422, 3-Fluoro-N-{4-[(2-{[2-(methylsulfonyl)ethyl]amino}pyrimidin-4-yl)oxy]-1-naphthyl}-5-piperidin-1-ylbenzamide]
26 | 56.7 | 28 | 106 to 108 |  | CN(C)C1CCN(c2nccc(Oc3ccc(NC(=O)c4cc(F)cc(N5CCOCC5)c4)c4ccccc34)n2)C1 (centres unmarked) [Compound B365, N-[4-({2-[3-(Dimethylamino)pyrrolidin-1-yl]pyrimidin-4-yl}oxy)-1-naphthyl]-3-fluoro-5-morpholin-4-ylbenzamide]
